From patent publication EP2243494A1, “Pharmaceutical composition, comprising a steroid-dehydrogenase-reductase inhibitor, and a mineralocorticoid receptor antagonist” (OntoChem GmbH, priority 2009, dated 2010)

How the values were obtained:
[1] = system: monocytes; experiment: Monocyte/macrophage differentiation and functional changes (RT-PCR or microarray analysis); format: cell-based, Rodent and human; conditions: for cell proliferation and maturation of monocytes: 10^-7 M cortisol, 10^-9 M aldosteron
Experimental: Rodent and human monocytes were studied during their differentiation process towards macrophages in the presence or absence of different, physiologically relevant levels of cortisol or corticosterone, as well as aldosterone, respectively.
Glucocorticoid receptor (GR) and mineralocorticoid receptor occupancy was modulated with either eplerenone or ZK91587 or canrenoate (as MR-antagonists) or RU486 (GR-antagonist). […] (dehydrocorticosterone in rodent cells) was added as a substrate for 11-beta-HSD1. Metyrapone was used to block 11-beta-HSD1 reductase activity. Inhibitors were added with 10^-7 M cortisol, 10^-9 M aldosteron concentration, HSD inhibitors were added in 10^-6 M concentration.
Monocytes were first stimulated with either lipopolysaccharide (LPS) or Tumor-necrosis-factor-alpha (TNF-apha), interferone-gamma (IFN-gamma), interleukin-13 (IL-13) or interleukin-4 (IL-4) before differentiation into macrophages in the presence of above different agonist/antagonist combinations. In order to evaluate the linkage between inflammation and metabolic disease, mature macrophages were also stimulated with fatty acids via the Toll-like-receptor 4.

[2] = molecular target: T1, mineralocorticoid receptor (Homo sapiens, UniProt P08235); conditions: relative to aldosterone; cited from earlier work
T1 sequence (P08235 1-984): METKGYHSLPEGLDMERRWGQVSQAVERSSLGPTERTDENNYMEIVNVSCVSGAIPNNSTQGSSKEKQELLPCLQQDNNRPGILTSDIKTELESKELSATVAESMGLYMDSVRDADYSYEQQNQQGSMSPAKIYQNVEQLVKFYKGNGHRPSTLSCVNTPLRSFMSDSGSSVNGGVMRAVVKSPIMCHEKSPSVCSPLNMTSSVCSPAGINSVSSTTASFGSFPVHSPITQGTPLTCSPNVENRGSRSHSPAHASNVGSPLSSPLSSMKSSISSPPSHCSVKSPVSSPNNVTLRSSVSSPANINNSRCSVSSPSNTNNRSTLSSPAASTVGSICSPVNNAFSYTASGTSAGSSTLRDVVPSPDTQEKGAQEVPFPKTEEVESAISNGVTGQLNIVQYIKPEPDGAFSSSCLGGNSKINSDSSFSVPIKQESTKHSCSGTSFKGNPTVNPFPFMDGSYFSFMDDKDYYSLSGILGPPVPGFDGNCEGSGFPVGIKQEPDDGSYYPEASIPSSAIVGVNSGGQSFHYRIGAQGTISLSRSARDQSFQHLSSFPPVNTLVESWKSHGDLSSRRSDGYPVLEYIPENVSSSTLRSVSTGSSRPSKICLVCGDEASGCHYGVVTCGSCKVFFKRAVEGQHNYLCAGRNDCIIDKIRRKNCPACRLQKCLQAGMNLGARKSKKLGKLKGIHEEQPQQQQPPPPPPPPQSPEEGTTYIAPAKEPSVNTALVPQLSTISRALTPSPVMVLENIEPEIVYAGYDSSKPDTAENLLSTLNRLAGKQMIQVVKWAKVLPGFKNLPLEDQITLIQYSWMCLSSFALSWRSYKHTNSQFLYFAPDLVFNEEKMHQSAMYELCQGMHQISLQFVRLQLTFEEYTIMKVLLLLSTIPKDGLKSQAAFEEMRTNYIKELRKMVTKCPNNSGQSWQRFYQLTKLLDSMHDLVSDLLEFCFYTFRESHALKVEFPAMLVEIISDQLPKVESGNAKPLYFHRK

[3] = heart failure patients, normal or low aldosterone, added to ACE inhibitor, loop diuretic and digoxin; cited from earlier work
[4] = system: Vascular smooth muscle cells; experiment: GR or MR blockade and 11-beta-HSD-2 inhibition in vascular cells; format: cell-based; conditions: physiologically relevant levels of aldosterone
Experimental: Vascular smooth muscle cells were incubated with varying combinations of a MR or GR-antagonist and physiologically relevant levels of cortisol or aldosterone; importantly, adosterone and cortisol were also used in combination to mimic specific interactions between the ligand-receptor and co-factor recruitment as observed in vitro and in vivo.

Row | SMILES | cell proliferation and maturation of monocytes [1] | decrease of post-myocardial infarction morbidity and mortality rate [3] | vascular endothelial growth factor (VEGF) and ICAM-1 induction [4] | other results
1 | CC(C)(C(=O)c1cccnc1)c1cccnc1 [metyrapone] | – | – | – | effect on macrophage differentiation and function ([1]; HSD inhibitors added in 10^-6 M concentration): the effects of aldosterone at the high affinitity MR were enhanced or were able to override glucocorticoid mediated effects
2 | C[C@]12CCC(=O)C=C1CC[C@@H]1[C@@H]2[C@@H](O)C[C@@]2(C)[C@H]1CC[C@]2(O)C(=O)CO [cortisol] | induced cell proliferation and maturation of monocytes | – | – | affinity to the mineralocorticoid receptor, higher than aldosterone [2]: 10-30 fold
3 | C[C@]12CCC(=O)C=C1CC[C@@H]1[C@@H]2C(=O)C[C@@]2(C)[C@H]1CC[C@]2(O)C(=O)CO [cortisone] | induced cell proliferation and maturation of monocytes | – | – | –
4 | COC(=O)[C@@H]1CC2=CC(=O)CC[C@]2(C)[C@@]23O[C@@H]2C[C@@]2(C)[C@@H](CC[C@@]24CCC(=O)O4)[C@H]13 [eplerenone] | – | ~15% | reversed this effect | –
5 | CC(=O)S[C@@H]1CC2=CC(=O)CC[C@]2(C)[C@H]2CC[C@@]3(C)[C@@H](CC[C@@]34CCC(=O)O4)[C@H]12 [spironolactone] | – | about 30% | – | –
6 | C[C@]12CCC(=O)C=C1CC[C@@H]1[C@@H]2[C@@H](O)C[C@]2(C=O)[C@@H](C(=O)CO)CC[C@@H]12 [aldosterone] | induced cell proliferation and maturation of monocytes | – | induced vascular endothelial growth factor (VEGF) as well as ICAM-1 | macrophage phenotype (NfkappaB, RANK-ligand, interleukin-6, ROS, plasminogen activator inhibitor-1) ([1]; induction with aldosterone): more proinflammatory macrophage phenotype
